Test [1] deals with T1, human factor XIa (Homo sapiens, UniProt P03951).
T1 construct: with human (0.04 nM) factor XIa
Nature of the test: Factor XIa Assay. As to conditions: human factor XIa 0.04 nM, substrate GPR-AFC, 25° C. The class given is biochemical. The method, then: The effectiveness of a compound of the present invention as an inhibitor of Coagulation factor XIa can be determined using a relevant purified serine protease, and an appropriate synthetic substrate. The rate of hydrolysis of the chromogenic or fluorogenic substrate by the relevant serine protease was measured both in the absence and presence of compounds of the present invention. Assays were conducted at rt or at 37° C. […] A decrease in the rate of fluorescence change in the presence of inhibitor is indicative of enzyme inhibition. Such methods are known to one skilled in the art. The results of this assay are expressed as the half-maximal inhibitory concentrations (IC50), or the inhibitory constant, Ki.
Compounds were pre-incubated for 30 min at 25° C. with human (0.04 nM) factor XIa in 50 mM HEPES buffer with 150 mM sodium chloride, 5 mM calcium chloride, 0.1% PEG 8000, pH 7.4. factor XIa enzymatic activity was determined by addition of the substrate glycine-proline-arginine-7-amido-4-trifluoromethylcoumarin (GPR-AFC) and measurement of the fluorescence at 400/505 nm after a 60 min incubation at 25° C. The % inhibition for each data point was calculated from the data and analyzed using the log (inhibitor) vs. response four parameters equation to determine the half-maximal inhibitory concentrations (IC50). The IC50 were converted to equilibrium inhibitory constants (Ki) using the Cheng-Prusoff equation.

The target of test [2] is T2, Human plasma kallikrein (Homo sapiens, UniProt P03952).
T2 construct: yields a heavy chain (371 amino acids) and a light chain (248 amino acids); purchased Enzyme Research Laboratories
Nature of the test: Plasma Kallikrein Assay. The test is classed as biochemical. As to conditions: purified Human plasma kallikrein 0.5 nM, substrate Acetyl-K-P-R-AFC; read-out: PKal IC50. An outline of the steps:
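Purified human plasma kallikrein (0.5 nM) hydrolysing fluorogenic Acetyl-K-P-R-AFC ([…]) in 50 mM HEPES pH 7.4, 150 mM NaCl, 5 mM CaCl2, 0.1% PEG 8000, at rt or 37 °C after enzyme–inhibitor equilibration. IC50 from four-parameter logistic fit; Ki via Cheng–Prusoff.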

T2 sequence (P03952 391-638 limits assumed): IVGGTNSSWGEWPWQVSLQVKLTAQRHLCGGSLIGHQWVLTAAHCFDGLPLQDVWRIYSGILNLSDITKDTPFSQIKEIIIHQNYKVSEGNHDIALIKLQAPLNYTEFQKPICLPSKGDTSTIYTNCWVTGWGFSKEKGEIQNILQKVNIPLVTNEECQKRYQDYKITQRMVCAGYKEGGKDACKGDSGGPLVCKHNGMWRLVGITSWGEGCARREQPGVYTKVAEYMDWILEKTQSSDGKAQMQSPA
T2 sequence (P03952 20-390 partner limits assumed): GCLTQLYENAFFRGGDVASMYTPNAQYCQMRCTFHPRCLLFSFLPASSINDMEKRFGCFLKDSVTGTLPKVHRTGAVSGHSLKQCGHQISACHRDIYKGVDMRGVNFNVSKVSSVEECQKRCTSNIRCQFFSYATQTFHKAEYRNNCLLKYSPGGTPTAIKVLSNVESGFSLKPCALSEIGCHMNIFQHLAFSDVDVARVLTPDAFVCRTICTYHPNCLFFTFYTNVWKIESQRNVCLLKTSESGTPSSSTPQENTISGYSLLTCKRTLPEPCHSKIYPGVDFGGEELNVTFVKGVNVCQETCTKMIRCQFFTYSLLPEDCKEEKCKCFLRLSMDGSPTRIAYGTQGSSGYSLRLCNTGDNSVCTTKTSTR
T1 sequence (P03951 388-625 limits assumed): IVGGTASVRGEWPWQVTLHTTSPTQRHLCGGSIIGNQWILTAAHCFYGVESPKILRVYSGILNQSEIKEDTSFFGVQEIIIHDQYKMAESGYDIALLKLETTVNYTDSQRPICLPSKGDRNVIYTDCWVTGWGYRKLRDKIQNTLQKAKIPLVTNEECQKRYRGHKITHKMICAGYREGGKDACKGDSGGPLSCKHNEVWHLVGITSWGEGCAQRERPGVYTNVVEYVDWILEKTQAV
T1 sequence (P03951 19-387 partner limits assumed): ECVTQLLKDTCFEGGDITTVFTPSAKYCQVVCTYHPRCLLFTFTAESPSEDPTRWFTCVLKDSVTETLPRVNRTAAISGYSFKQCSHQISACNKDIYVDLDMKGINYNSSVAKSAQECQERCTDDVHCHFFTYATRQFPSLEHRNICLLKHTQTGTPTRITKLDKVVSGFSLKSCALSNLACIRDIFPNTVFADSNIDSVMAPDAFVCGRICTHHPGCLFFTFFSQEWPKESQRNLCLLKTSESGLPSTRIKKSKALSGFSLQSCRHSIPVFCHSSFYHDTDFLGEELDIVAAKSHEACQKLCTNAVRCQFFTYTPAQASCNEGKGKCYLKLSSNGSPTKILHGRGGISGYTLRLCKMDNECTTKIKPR

By IC50 is commonly meant the concentration needed to halve the response being measured. With `C[C@H](O)[C@@H](c1ccccc1)n1cc(C(=O)N2CCC[C@@]3(C2)OC(=O)Nc2ccc(Cl)c(F)c23)cn1` [Example 9, (R)-6-Chloro-5-fluoro-1′-(1-((1R,2S)-2-hydroxy-1-phenylpropyl)-1H-pyrazole-4-carbonyl)spiro[benzo[d][1,3]oxazine-4,3′-piperidin]-2(1H)-one], the IC50 in test [1] was found to be 5590 nM; in test [2], 29.7 nM.

Take `CC[C@H](c1ccc(F)cc1)c1ncc(C(=O)N2CCC[C@@]3(C2)OC(=O)Nc2ccc(Cl)c(F)c23)[nH]1` (single isomer, unassigned) [Example 80]: the results for the IC50 in test [1] and in test [2] were 179 nM and 1.9 nM, respectively.

Consider `CCC(c1ccc2[nH]ncc2c1)n1cc(C(=O)N2CCC[C@@]3(C2)OC(=O)Nc2ccc(Cl)c(F)c23)cn1` (single isomer, unassigned) [Example 40], for which the figures for the half-inhibitory concentration (IC50) in test [1] and in test [2] were 1000 nM and 7.1 nM, respectively.

For `CC1(C)CN(C(=O)c2nnc(Cc3ccccc3)[nH]2)C[C@]2(C1)OC(=O)Nc1ccc(Cl)c(F)c12` [Example 89, (R)-1′-(5-Benzyl-4H-1,2,4-triazole-3-carbonyl)-6-chloro-5-fluoro-5′,5′-dimethylspiro[benzo[d][1,3]oxazine-4,3′-piperidin]-2(1H)-one], the values for the 50% inhibitory concentration (IC50) in test [1] and in test [2] were 7200 nM and 14.9 nM, respectively.

As to `CC[C@H](c1ccc(F)cc1)c1nnc(C(=O)N2CCC[C@@]3(C2)OC(=O)Nc2ccc(Cl)c(F)c23)[nH]1` (single isomer, unassigned) [Example 85], the IC50 in test [1] turned out to be 3110 nM; in test [2] it was 16.7 nM.

Turning to `O=C1Nc2ccc(Cl)c(F)c2[C@@]2(CCCN(C(=O)c3nnc(C(CC(F)(F)F)c4cccc(Cl)c4)[nH]3)C2)O1` (single isomer, unassigned) [Example 101], the IC50 in test [1] is 4010 nM; in test [2] it was 10.4 nM.

As to `O=C1Nc2ccc(Cl)c(F)c2[C@@]2(CCCN(C(=O)c3nnc(C4(c5ccc(F)cc5)CCOCC4)[nH]3)C2)O1` [Example 94, (R)-6-Chloro-5-fluoro-1′-(5-(4-(4-fluorophenyl)tetrahydro-2H-pyran-4-yl)-4H-1,2,4-triazole-3-carbonyl)spiro[benzo[d][1,3]oxazine-4,3′-piperidin]-2(1H)-one], the IC50 in test [1] was found to be 2490 nM; in test [2], 5.6 nM.

In the case of `O=C1Nc2ccc(Cl)c(F)c2[C@@]2(CCCN(C(=O)c3nnc(C(Cc4ccccc4)c4ccccc4)[nH]3)C2)O1` (single isomer, unassigned) [Example 104], the IC50 in test [1] was determined as 2990 nM; in test [2], 16.6 nM.

`CCC(c1ccc2c(c1)COC2)c1nnc(C(=O)N2CCC[C@@]3(C2)OC(=O)Nc2ccc(Cl)c(F)c23)[nH]1` (single isomer, unassigned) [Example 111]: the IC50 in test [1] was determined as 2820 nM; in test [2], 3.8 nM.

Consider `CC(C)(c1ccccc1)c1nnc(C(=O)N2CCC[C@@]3(C2)OC(=O)Nc2ccc(Cl)c(F)c23)[nH]1` [Example 93, (R)-6-Chloro-5-fluoro-1′-(5-(2-phenylpropan-2-yl)-4H-1,2,4-triazole-3-carbonyl)spiro[benzo[d][1,3]oxazine-4,3′-piperidin]-2(1H)-one], for which the results for the IC50 in test [1] and in test [2] were 3160 nM and 29.9 nM, respectively.

Regarding `CC[C@@H](c1ccc(F)cc1)c1ncc(C(=O)N2CCC[C@@]3(C2)OC(=O)Nc2ccc(Cl)c(F)c23)[nH]1` (single isomer, unassigned) [Example 79], the results for the concentration for half-maximal inhibition (IC50) in test [1] and in test [2] were 194 nM and 1.7 nM, respectively.

Take `O=C1Nc2ccc(Cl)c(F)c2[C@@]2(CCCN(C(=O)c3nnc(C(c4ccccc4)C4CC4)[nH]3)C2)O1` (single isomer, unassigned) [Example 107]: the results for the IC50 in test [1] and in test [2] were 1910 nM and 11.2 nM, respectively.

Regarding `COCC(c1ccccc1)c1n[nH]c(C(=O)N2CCC[C@@]3(C2)OC(=O)Nc2ccc(Cl)c(F)c23)n1` (stereo partly drawn) [Example 130, (4R)-6-Chloro-5-fluoro-1′-(3-(2-methoxy-1-phenylethyl)-1H-1,2,4-triazole-5-carbonyl)spiro[benzo[d][1,3]oxazine-4,3′-piperidin]-2(1H)-one], the IC50 in test [1] was 1360 nM; in test [2], 5.3 nM.

Regarding `O=C1Nc2ccc(Cl)c(F)c2[C@@]2(CCCN(C(=O)c3cnn(Cc4ccnc(C(F)(F)F)c4)c3)C2)O1` [Example 7, (R)-6-Chloro-5-fluoro-1′-(1-((2-(trifluoromethyl)pyridin-4-yl)methyl)-1H-pyrazole-4-carbonyl)spiro[benzo[d][1,3]oxazine-4,3′-piperidin]-2(1H)-one], the IC50 came to 881 nM in test [1] and 37.5 nM in test [2].

`O=C1Nc2ccc(Cl)c(F)c2[C@@]2(CCCN(C(=O)c3nc(Cc4ccccc4)c[nH]3)C2)O1` [Example 65, (R)-1′-(4-Benzyl-1H-imidazole-2-carbonyl)-6-chloro-5-fluorospiro[benzo[d][1,3]oxazine-4,3′-piperidin]-2(1H)-one]: the IC50 was determined as 1770 nM in test [1] and 19.3 nM in test [2].

Consider `O=C1Nc2ccc(Cl)c(F)c2[C@@]2(CCCN(C(=O)c3cnc(C(c4ccc(F)cc4)C(F)(F)F)[nH]3)C2)O1` (single isomer, unassigned) [Example 82], for which the IC50 in test [1] was 7390 nM; in test [2] it was 42.5 nM.

On to `CCC(c1ccc(F)cc1)c1c[nH]c(C(=O)N2CCC[C@@]3(C2)OC(=O)Nc2ccc(Cl)c(F)c23)n1` (single isomer, unassigned) [Example 71, (R)-6-Chloro-5-fluoro-1′-(4-((R or S)-1-(4-fluorophenyl)propyl)-1H-imidazole-2-carbonyl)spiro[benzo[d][1,3]oxazine-4,3′-piperidin]-2(1H)-one], for which the IC50 in test [1] was determined as 995 nM; in test [2] it was 5.5 nM.

`CCC(c1ccc(F)c(Cl)c1)c1nnc(C(=O)N2CCC[C@@]3(C2)OC(=O)Nc2ccc(Cl)c(F)c23)[nH]1` (single isomer, unassigned) [Example 96]: the IC50 in test [1] was determined as 5080 nM; in test [2], 3.5 nM.

Consider `CCC(c1ccnc(C(F)(F)F)c1)c1c[nH]c(C(=O)N2CCC[C@@]3(C2)OC(=O)Nc2ccc(Cl)c(F)c23)n1` (single isomer, unassigned) [Example 73, (R)-6-Chloro-5-fluoro-1′-(4-((R or S)-1-(2-(trifluoromethyl)pyridin-4-yl)propyl)-1H-imidazole-2-carbonyl)spiro[benzo[d][1,3]oxazine-4,3′-piperidin]-2(1H)-one], for which the IC50 in test [1] stood at 2050 nM; in test [2], 8.2 nM.

Regarding `CCC(c1ccc2[nH]ncc2c1)n1cc(C(=O)N2CCC[C@@]3(C2)OC(=O)Nc2ccc(Cl)c(F)c23)cn1` (single isomer, unassigned) [Example 39], the half-inhibitory concentration (IC50) in test [1] amounted to 1350 nM; in test [2] it was 4 nM.

As for `CCC(c1ccc(F)cc1)c1nnc(C(=O)N2CC(C)(C)C[C@@]3(C2)OC(=O)Nc2ccc(Cl)c(F)c23)[nH]1` (single isomer, unassigned) [Example 102], the 50% inhibitory concentration (IC50) in test [1] was found to be 1130 nM; in test [2], 3.6 nM.

`O=C1Nc2ccc(Cl)c(F)c2[C@@]2(CCCN(C(=O)c3nnc(C(Cc4ccccc4)c4ccccc4)[nH]3)C2)O1` (single isomer, unassigned) [Example 105]: the IC50 is 3600 nM in test [1] and 17.3 nM in test [2].

On to `O=C1Nc2ccc(Cl)c(F)c2[C@@]2(CCCN(C(=O)c3nnc(C(CC(F)(F)F)c4ccccc4)[nH]3)C2)O1` (single isomer, unassigned) [Example 99], for which the results for the IC50 in test [1] and in test [2] were 1370 nM and 9.7 nM, respectively.

As for `CCC(c1cc(C)c2nc[nH]c2c1)n1cc(C(=O)N2CCC[C@@]3(C2)OC(=O)Nc2ccc(Cl)c(F)c23)cn1` (single isomer, unassigned) [Example 45, (4R)-6-Chloro-5-fluoro-1′-(1-((R or S)-1-(4-methyl-1H-benzo[d]imidazol-6-yl)propyl)-1H-pyrazole-4-carbonyl)spiro[benzo[d][1,3]oxazine-4,3′-piperidin]-2(1H)-one], the values for the IC50 in test [1] and in test [2] were 1420 nM and 0.8 nM, respectively.

As to `CCC(O)(c1ccc(F)cc1)c1n[nH]c(C(=O)N2CCC[C@@]3(C2)OC(=O)Nc2ccc(Cl)c(F)c23)n1` (single isomer, unassigned) [Example 128, (R)-6-Chloro-5-fluoro-1′-(3-(UR or S)-1-(4-fluorophenyl)-1-hydroxypropyl)-1H-1,2,4-triazole-5-carbonyl)spiro[benzo[d][1,3]oxazine-4,3′-piperidin]-2(1H)-one], the IC50 in test [1] worked out at 382 nM; in test [2], 4 nM.

With `CCC(c1ccc2cnccc2c1)n1cc(C(=O)N2CCC[C@@]3(C2)OC(=O)Nc2ccc(Cl)c(F)c23)cn1` (single isomer, unassigned) [Example 36], the IC50 in test [1] turned out to be 2490 nM; in test [2], 2.8 nM.

Regarding `O=C1Nc2ccc(Cl)c(F)c2[C@@]2(CCCN(C(=O)c3cnc([C@@H](O)c4ccc(F)cc4)[nH]3)C2)O1` [Example 77], the 50% inhibitory concentration (IC50) is 8130 nM in test [1] and 56.6 nM in test [2].

Source of the values: patent US20250099478A1, “PLASMA KALLIKREIN INHIBITORS” (Merck Sharp & Dohme LLC, priority 2022, published 2025).
